PubChem BioAssay AID1645868 (Buhrlage Lab, Dana-Farber Cancer Institute and Novartis …, 2021)
Calls of active or inactive are those of the source.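 The calls were made as follows: active = maximal percent inhibition of the deubiquitinase OTUD3 of at least 30% across the tested doses; inactive = the rest.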

Target: OTU domain-containing protein 3 (Homo sapiens) (UniProt Q5T2D3)
Test: Validation of screening hits, potency titration, in vitro enzymatic, OTU domain-containing protein 3 DUB inhibitors (AID 1645868)
Conditions: purified OTUD3, ubiquitin-rhodamine cleavage fluorescence, 2 h

OTU domain-containing protein 3 (Homo sapiens), sequence (Q5T2D3 whole entry, looked up, the tested form may be a part): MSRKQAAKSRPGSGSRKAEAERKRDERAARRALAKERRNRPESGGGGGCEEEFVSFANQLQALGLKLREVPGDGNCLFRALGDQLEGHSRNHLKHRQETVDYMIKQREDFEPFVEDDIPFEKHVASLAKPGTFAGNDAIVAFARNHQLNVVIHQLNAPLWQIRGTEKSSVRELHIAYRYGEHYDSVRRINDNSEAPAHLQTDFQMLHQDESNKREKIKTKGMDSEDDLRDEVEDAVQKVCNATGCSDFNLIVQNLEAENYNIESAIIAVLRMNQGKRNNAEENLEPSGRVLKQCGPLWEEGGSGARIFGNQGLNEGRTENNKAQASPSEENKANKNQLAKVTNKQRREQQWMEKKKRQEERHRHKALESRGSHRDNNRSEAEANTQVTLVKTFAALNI

Row | Compound | IC50
1 | O=C(Cc1noc2ccccc12)N1CCN(c2ccc([N+](=O)[O-])cc2)CC1 | > 50 µM (inactive)
2 | Cc1cc(C)c2c(-n3cccc3)c(C(=O)NCCc3ccc(S(N)(=O)=O)cc3)sc2n1 | > 50 µM (inactive)
3 | Cn1c2ccccc2c(=O)c2c(=O)n(Cc3ccccc3)c(-c3ccccc3F)nc21 | 0.33 µM
4 | COc1cccc(NC(=O)c2cnc3c(c2)c(=O)n(C)c(=O)n3C)c1 | 19.9 µM
5 | COc1ccc(C(=O)Nc2cc3c4c(c2)C(C)C(=O)N4CCC3)cc1 (centres undefined) | > 50 µM (inactive)
6 | O=C(COC(=O)c1cc(Cl)c2c(c1)OCO2)Nc1ccc2[nH]c(=O)[nH]c2c1 | > 50 µM (inactive)
7 | CC(OC(=O)c1cn(-c2ccccc2)nc1-c1cccnc1)C(=O)Nc1cccc(S(=O)(=O)N(C)C)c1 (centres undefined) | > 50 µM (inactive)
8 | CC(C)OC(=O)c1cc2c(ccn2-c2ccc(F)cc2)n1CC(=O)NC1CCCCC1 | > 50 µM (inactive)
9 | O=C(COC(=O)Cn1cnc2ccccc21)Nc1ccc2c(c1)OCCO2 | > 50 µM (inactive)
10 | O=C(COc1ccc(Cl)cc1Cl)Nc1ccccc1-c1nc2ccccc2[nH]1 | 6.12 µM
11 | COc1ccc(C2CC(=O)Nc3n[nH]c(-c4ccccc4)c32)cc1OC (centres undefined) | > 50 µM (inactive)
12 | Cc1c(Cl)cccc1NC(=O)Cn1ccc2ccccc2c1=O | > 50 µM (inactive)
13 | O=c1c2cc([N+](=O)[O-])ccc2nc(CN2CCN(c3ccccn3)CC2)n1-c1ccccc1F | > 50 µM (inactive)
14 | O=S1(=O)CCN(CC2CCCO2)c2c(Oc3ccccc3)nc(F)c(Cl)c21 (centres undefined) | > 50 µM (inactive)
15 | Cc1cc(Cl)ccc1NC(=O)c1cc(-c2cccnc2)n[nH]1 | > 50 µM (inactive)
16 | O=C1CC(c2cc3c(cc2Br)OCO3)c2cc3c(cc2N1)OCCO3 (centres undefined) | 18.7 µM
17 | Cc1c(C)n(-c2ccc(Br)cn2)c2ncnc(NCCCO)c12 | > 50 µM (inactive)
18 | Cc1ccc(S(=O)(=O)c2cnc(SCC(=O)Nc3ccc(Cl)cc3)nc2N)cc1C | > 50 µM (inactive)
19 | Cc1cc(C)cc(NC(=O)CSc2ccc(-c3ccncc3)nn2)c1 | > 50 µM (inactive)
20 | CCc1noc(Cn2cnc3c4ccccc4n(CC(=O)NC4CCCCC4)c3c2=O)n1 | > 50 µM (inactive)
21 | COc1ccc(C(=O)NCCc2nnc3ccc(SCC(=O)NCc4ccc(F)cc4)nn23)cc1 | 26.2 µM
22 | Cc1ccccc1-c1nnc(-c2ccc(C(=O)NCc3ccccc3F)cc2)o1 | 31.6 µM
23 | COc1ccccc1NC(=O)CNC(=O)c1nn(-c2ccc(OC)c(OC)c2)c(=O)c2ccccc12 | 38.8 µM
24 | CCOc1cccc2sc(N(Cc3cccnc3)C(=O)CCc3ccccc3)nc12 | > 50 µM (inactive)

Row | Compound | IC50
25 | COc1ccc(NC(=O)c2ccc(Nc3nnc(C)c4ccccc34)cc2)cc1 | > 50 µM (inactive)
26 | CC1OC(CC(=O)O)CC23OC12C(=O)c1c(O)cccc1C3=O (centres undefined) | > 50 µM (inactive)
27 | O=C(/C=C/c1ccc(F)cc1)Nc1ccc2c(c1)OCCO2 | > 50 µM (inactive)
28 | Cc1nn(CC(=O)NCc2ccccc2F)c2ccccc12 | > 50 µM (inactive)
29 | COc1ccc(CCNC(=O)CCCCn2c(=O)c3ccccc3n(Cc3cccc(Cl)c3)c2=O)cc1OC | 29.9 µM
30 | COc1cccc(/C=C/c2nc(C#N)c(N3CCN(C(=O)c4cccs4)CC3)o2)c1 | > 50 µM (inactive)
31 | Cc1cccc(-n2ccnc(SCC(=O)Nc3ccc(Cl)cc3F)c2=O)c1 | 27.7 µM
32 | Cc1ccc(-c2nc(NC(=O)COc3ccc(Cl)cc3)no2)cc1 | 20.6 µM
33 | Cc1cccc(C(=O)Nc2cccc(SC(C(=O)Nc3ccc(O)c(C(=O)O)c3)c3ccccc3)c2)c1 (centres undefined) | 24.1 µM
34 | C=C(NC(=O)C(=C)NC(=O)c1csc(C2=N[C@@H]3c4csc(n4)[C@H]4NC(=O)c5csc(n5)[C@H]([C@](C)(O)[C@@H](C)O)NC(=O)[C@H]5CSC(=N5)/C(=C/C)NC(=O)C([C@@H](C)O)NC(=O)c5csc(n5)C3(CC2)NC(=O)[C@H](C)NC(=O)C(=C)NC(=O)[C@H](C)NC(=O)C([C@@H](C)CC)N[C@@H]2C=Cc3c(C(C)O)cc(nc3[C@H]2O)C(=O)OC4C)n1)C(N)=O (some centres undefined) | > 50 µM (inactive)
35 | Cc1cccc(NC(=O)Cn2c(N3CCOCC3)nc3cc(C)n(C)c3c2=O)c1 | 40.6 µM
36 | Cn1c(=O)cc(SCC(=O)NC2CCN(Cc3ccccc3)CC2)c2ccc(Cl)cc21 | > 50 µM (inactive)
37 | Cc1nc(-c2cccc(NC(=O)c3ccccc3Cl)c2)no1 | > 50 µM (inactive)
38 | O=S(=O)(c1ccc2c(c1)OCCO2)N(Cc1ccccc1)Cc1nnc(-c2ccccc2)o1 | > 50 µM (inactive)
39 | O=C(/C=C/c1ccco1)c1cccc([N+](=O)[O-])c1 | 23.2 µM
40 | O=C(COc1cccc2ccc(N3CCC(Cc4ccccc4)CC3)nc12)NCc1ccc(F)cc1 | 30.5 µM
41 | Cc1ccc2nc(CCc3ccc(NS(=O)(=O)c4cccc(Cl)c4C)cc3)[nH]c2c1 | > 50 µM (inactive)
42 | COC1=C(C2=C(OC)C(=O)c3cc4c(c(O)c3C2=O)C(=O)OC(C)C4)C(=O)c2c(cc3c(c2O)C(=O)OC(C)C3)C1=O (centres undefined) | 3.28 µM
43 | Cc1ccc2c(c1)c(=O)c(C(=O)c1ccccc1)cn2CC(=O)Nc1ccc2c(c1)OCCO2 | 14.2 µM
44 | CCCC(=O)c1c[nH]c(C(=O)NCc2ccc(F)cc2)c1 | 32.9 µM
45 | COc1ccc(NCc2nc3ccccc3n2Cc2ccccc2)cc1 | > 50 µM (inactive)
46 | COc1ccc(-c2cc(-c3nnc(CSc4nc5ccccc5n4C)o3)c3ccccc3n2)cc1OC | > 50 µM (inactive)
47 | CCCC1Cc2c(sc3nc(SCC)nc(N)c23)CO1 (centres undefined) | 26.9 µM
48 | CCN(c1ccc(NC(=O)CSc2nnc(-c3ccccc3)n2-c2ccc(OC)c(OC)c2)cc1)C(C)C | 19.7 µM

Row | Compound | IC50
49 | COc1cccc(CNC(=O)c2ccc3c(c2)NC(=O)C2CCCN32)c1OC (centres undefined) | > 50 µM (inactive)
50 | COc1ccc(Cl)cc1-n1nnc(C(=O)N2CCc3ccccc3C2)c1C | > 50 µM (inactive)
51 | O=C(c1ccco1)N1CCC2(CC1)CC1(CO2)Nc2ccccc2-n2cccc21 (centres undefined) | > 50 µM (inactive)
52 | Cc1[nH]nc(NC(=O)C2COc3ccccc3O2)c1-c1ccccc1 (centres undefined) | 26.6 µM
53 | Cc1ccc2c(=O)c3c([nH]c2c1C)CCN(CC(=O)NCc1ccccc1)C3 | > 50 µM (inactive)
54 | O=c1[nH]cccc1NS(=O)(=O)c1ccc(F)cc1 | > 50 µM (inactive)
55 | COc1cccc(N2CCN(C(=O)CCNS(=O)(=O)c3ccc4c(c3)CCC(=O)N4)CC2)c1 | > 50 µM (inactive)
56 | Cc1ccc(C(=O)NCc2ccc(C(=O)Nc3ccc(C)c(C)c3)o2)cc1 | > 50 µM (inactive)
57 | Cc1cc(/C=C2/C(=N)N3C(c4ccccc4)=CSC3=NC2=O)c(C)n1-c1ccc2ccccc2c1 | > 50 µM (inactive)
58 | Cc1ccccc1OCCC(=O)Nc1cccc(S(=O)(=O)Nc2ccccc2Cl)c1 | > 50 µM (inactive)
59 | COC(=O)c1ccc(NC(=O)CSc2nnc(-c3ccc(O)cc3)n2Cc2ccco2)cc1 | > 50 µM (inactive)
60 | COc1ccc(Nc2ncc(C(=O)Nc3ccc(Oc4ccccc4)cc3)c3ccccc23)cc1 | > 50 µM (inactive)
61 | Cn1c(CCNC(=O)c2[nH]nc3c2CCc2ccccc2-3)nc2ccccc21 | 29.3 µM
62 | CCCCCCCc1cc(O)cc(O)c1 | > 50 µM (inactive)
63 | Cc1ccc(NC(=O)c2nnn(-c3ccccc3)n2)cc1F | > 50 µM (inactive)
64 | COCCCN1CCS(=O)(=O)c2c(Cl)c(F)nc(Oc3ccc(C#N)cc3)c21 | > 50 µM (inactive)
65 | O=C(CNC(=O)c1cc2ccccc2o1)Nc1ccc2c(c1)OCCO2 | 33.8 µM
66 | CCc1nc(SCC(=O)Nc2ccccc2Cl)c2oc3ccccc3c2n1 | 1.92 µM
67 | O=C1CC(O)C(C2=CC(=O)c3c(O)cccc3C2=O)O1 (centres undefined) | 2.47 µM
68 | Cc1ccc(C)c(CSC2=NCCN2C(=O)c2ccco2)c1 | > 50 µM (inactive)
69 | COc1ccc(-n2c(=O)c(CCC(=O)O)nc3ccccc32)cc1 | > 50 µM (inactive)
70 | CC(=O)NCc1nc(-c2ccc3c(c2)nc(C)c(=O)n3C2CCCC2)no1 | > 50 µM (inactive)
71 | c1ccc(-c2nc(-c3nnn(-c4ccccc4)c3-c3ccncc3)no2)cc1 | 26.8 µM
72 | CCn1cc(-c2cc(C(=O)Nc3cnn(Cc4cccc(F)c4)c3)c3ccccc3n2)cn1 | > 50 µM (inactive)

Row | Compound | IC50
73 | COc1ccc(COc2ccc3c(C)c(CC(=O)N4CC[C@@]5(O)CCCC[C@H]5C4)c(=O)oc3c2)cc1 | 4.62 µM
74 | O=C(NCCc1ccccn1)c1cn2ccnc(-c3ccc(F)cc3)c2n1 | > 50 µM (inactive)
75 | Cc1cc(C(=O)N2CCOC3(CC=CCN(CCc4ccccc4)C3=O)C2)n2nccc2n1 (centres undefined) | > 50 µM (inactive)
76 | CC(C)(C)N=C1Nc2ncccc2NC12CCCN(C(=O)c1ccccc1)C2 (centres undefined) | > 50 µM (inactive)
77 | Cc1ccccc1NC(=O)CNc1nc(Nc2ccccc2)nc(Nc2ccccc2)n1 | 21 µM
78 | COc1cc(NC(=O)c2ccc3c(c2)OCO3)ccc1-c1cc2ccccc2oc1=O | > 50 µM (inactive)
79 | Cc1ccc(C(=O)Nc2ccc3c(c2)C(=O)N(C)c2ccccc2O3)cc1C | > 50 µM (inactive)
80 | CCn1c(SCc2nc(N)c3ccccc3n2)nc2ccccc21 | > 50 µM (inactive)
81 | COc1ccccc1CNC(=O)C1CCCN(c2nc3ccsc3c(=O)s2)C1 (centres undefined) | > 50 µM (inactive)
82 | CC1CCc2c(sc3nc(CC#N)[nH]c(=O)c23)C1 (centres undefined) | > 50 µM (inactive)
83 | Cc1cc(C(=O)N2CC(C(=O)Nc3cc(C(F)(F)F)ccc3Cl)C2)no1 | > 50 µM (inactive)
84 | O=C1c2ccccc2-n2c1nc1ccccc1c2=O | > 50 µM (inactive)
85 | C[C@@H]1OC2=C(C(=O)c3cccc(O)c3C2=O)[C@H](O)[C@@H]1O | 4.45 µM
86 | CN1c2ccccc2CN(CC(N)=O)CC1Cc1ccccc1 (centres undefined) | > 50 µM (inactive)
87 | O=[N+]([O-])c1ccc(N2CCN(c3ncnc4c3[nH]c3ccc(F)cc34)CC2)cc1 | 2.45 µM
88 | Cc1noc(-c2cccn(Cc3cccc(C(F)(F)F)c3)c2=O)n1 | > 50 µM (inactive)
89 | O=C(Nc1nnc(C2CC2)s1)c1ccc(OCC2CCCO2)cc1 (centres undefined) | > 50 µM (inactive)
90 | CCc1ccc(C2c3c(oc4ccccc4c3=O)C(=O)N2c2nncs2)cc1 (centres undefined) | > 50 µM (inactive)
91 | CSc1cccc(NC(=O)COc2cccc3ccccc23)c1 | 39.6 µM
92 | COc1ccc(C(C(=O)NC2CCCCC2)N(C(=O)CCCC(=O)Nc2ccccn2)c2ccccc2C)cc1 (centres undefined) | 22.3 µM
93 | Cc1ccc(C)c(Nc2cc(C)nc3nc(-c4ccco4)nn23)c1 | > 50 µM (inactive)
94 | N#Cc1ccccc1Cn1c(=O)n(Cc2ccco2)c(=O)c2ccccc21 | > 50 µM (inactive)
